Common to all, as to format: in vivo
The subject of one assay is kochia (Kochia scoparia). The experiment in a line: Test E pre-/postemergence/post directed. Also on record: key: 0 is no effect; 100 is complete control. The note with it: PREEMERGENCE
The method, boiled down:
(§1)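 Greenhouse pot-grown plants; compound in non-phytotoxic solvent with surfactant applied preemergence to soil within one day of planting, postemergence at two to four leaf stage (three to twenty cm), or post-directed to plant base and soil. Visual injury rated 13 to 21 days after application, 0 (none) to 100 (complete control).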

Assay [1] relates to Russian thistle (Salsola kali). The assay is described as follows: Test E pre-/postemergence/post directed. Conditions: PREEMERGENCE
Summed up: as §1

Assay [2] concerns sugarcane (Saccharum officinarum). The experiment in a line: Test E pre-/postemergence/post directed. Also on record: key: 0 is no injury; 100 is complete control. The method, boiled down: as §1
The subject of assay [3] is Russian thistle (Salsola kali). The assay is described as follows: Test D. The note with it: POSTEMERGENCE
The procedure: Compounds evaluated in this test were formulated in a non-phytotoxic solvent mixture which included a surfactant and applied to plants that were in the 1- to 4-leaf stage (postemergence application). A mixture of sandy loam soil and greenhouse potting mix in a 60:40 ratio was used for the postemergence test.
Plantings of these crops and weed species were adjusted to produce plants of appropriate size for the postemergence test. All plant species were grown using normal greenhouse practices. Crop and weed species include alfalfa (Medicago sativa), annual bluegrass (Poa annua), blackgrass (Alopecurus myosuroides), black nightshade (Solanum nigra), chickweed (Stellaria media), common poppy (Papaver rhoeas), deadnettle (Lamium amplexicaule), downy brome (Bromus tectorum), field violet (Viola arvensis), galium 2 (Galium aparine), green foxtail (Setaria viridis), Italian ryegrass (Lolium multiflorum), jointed goatgrass (Aegilops cylindrica), kochia (Kochia scoparia), lambsquarters (Chenopodium album), lentil (Lens culinaris), littleseed canarygrass (Phalaris minor), pea (Pisum sativum), potato (Solanum tuberosum), rape (Brassica napus), redroot pigweed (Amaranthus retroflexus), Russian thistle (Salsola kali), scentless chamomile (Matricaria inodora), sorghum (Sorghum vulgare), spring barley (Hordeum vulgare), sugar beet (Beta vulgaris), sunflower (Helianthus annuus), ivyleaf speedwell (Veronica hederaefolia), spring wheat (Triticum aestivum), winter wheat (Triticum aestivum), wild buckwheat (Polygonum convolvulus), wild mustard (Sinapis arvensis), wild oat (Avena fatua), windgrass (Apera spica-venti) and winter barley (Hordeum vulgare).
Treated plants and untreated controls were maintained in a greenhouse for approximately 21 to 28 days, after which all treated plants were compared to untreated controls and visually evaluated. Plant response ratings, summarized in Table D, are based upon a 0 to 100 scale where 0 is no effect and 100 is complete control. A dash response (−) means no test result.

Assay [4] deals with wild buckwheat (Polygonum convolvulus). The experiment in a line: Test D. Also on record: key: 0 is no effect; 10 is complete control. Conditions: PREEMERGENCE, Rate 62 g/ha.
Assay [5] deals with downy brome (Bromus tectorum). The experiment in a line: Test D. The note with it: PREEMERGENCE
Also on record: key: 0 is no effect; 100 is complete control.

Assay [6] deals with downy brome (Bromus tectorum). The assay is described as follows: Test D. The note with it: PREEMERGENCE, Rate 62 g/ha. Also on record: key: 0 is no effect; 10 is complete control.
The test system of assay [7] is itchgrass (Rottboellia exaltata). The assay is described as follows: Test E pre-/postemergence/post directed. More on the design: key: 0 is no injury; 100 is complete control. Conditions: PREEMERGENCE
The method, boiled down: as §1

For assay [8], the system named is large crabgrass (Digitaria sanguinalis). The experiment in a line: Test E pre-/postemergence/post directed. Also on record: key: 0 is no injury; 100 is complete control. The note with it: PREEMERGENCE, Rate 32 g/ha. Summed up:
as §1

Assay [9] relates to johnson grass (Sorghum halepense). The assay is described as follows: Test E pre-/postemergence/post directed. More on the design: key: 0 is no injury; 100 is complete control. The note with it: PREEMERGENCE
The method, boiled down:
as §1

Assay [10] concerns surinam grass (Brachiaria decumbens). The experiment in a line: Test E pre-/postemergence/post directed. More on the design: key: 0 is no injury; 100 is complete control. The note with it: PREEMERGENCE
The method, boiled down:
as §1

In assay [11] the test system is wild buckwheat (Polygonum convolvulus). The assay is described as follows: Test D. Conditions: PREEMERGENCE, Rate 125 g/ha. Also on record: key: 0 is no effect; 100 is complete control.
Assay [12] concerns Spanishneedles (Bidens bipinnata). The experiment in a line: Test E pre-/postemergence/post directed. More on the design: key: 0 is no injury; 100 is complete control. The note with it: PREEMERGENCE
The method, boiled down:
as §1

The test system of assay [13] is Italian ryegrass (Lolium multiflorum). The experiment in a line: Test D. Also on record: key: 0 is no effect; 100 is complete control. Conditions: PREEMERGENCE
The test system of assay [14] is itchgrass (Rottboellia exaltata). The experiment in a line: Test E pre-/postemergence/post directed. Also on record: key: 0 is no effect; 100 is complete control. Conditions: PREEMERGENCE
Summed up: as §1

For assay [15], the system named is barnyardgrass (Echinochloa crus-galli). The experiment in a line: Test E pre-/postemergence/post directed. Also on record: key: 0 is no effect; 100 is complete control. The note with it: PREEMERGENCE
Summed up: as §1

Turning to `Cc1cnc(-c2ccc(C(F)(F)F)cc2)nc1Cc1cccc(OC(F)(F)F)c1` [Compound 15], the “Plant response rating, Kochia” value was 60 in the assay on kochia (Kochia scoparia) (Rate 32 g/ha), 75 in the assay with kochia (Kochia scoparia) (Rate 64 g/ha), 95 in the assay with kochia (Kochia scoparia) (Rate 125 g/ha) and 100 with kochia (Kochia scoparia) (Rate 250 g/ha). The “Plant response rating, Russian thistle” value in assay [1] (Rate 32 g/ha) is recorded as 70; in assay [1] (Rate 64 g/ha), 90; in assay [1] (Rate 125 g/ha) it was 95; in assay [1] (Rate 250 g/ha), 95. Moreover, the “Plant response rating, Sugarcane” value in assay [2] (PREEMERGENCE, Rate 32 g/ha) turned out to be 0; in [2] (PREEMERGENCE, Rate 64 g/ha) it was 0; in assay [2] (PREEMERGENCE, Rate 125 g/ha), 10; in assay [2] (PREEMERGENCE, Rate 250 g/ha), 10.

With `CCc1cnc(-c2ccc(C(F)(F)F)cc2)nc1Cc1cccc(C(F)(F)F)c1` [Compound 22], the “Plant response rating, Russian thistle” value in assay [3] (Rate 62 g/ha) and in assay [3] (Rate 125 g/ha) was 80 throughout. Further, in [4], the “Plant response rating, Wild buckwheat” value came to 0. The “Plant response rating, Downy brome” value in assay [5] (Rate 125 g/ha) was 100; in [6], 0.

As to `Cc1cnc(-n2cnc(C(F)(F)F)c2)nc1Cc1cccc(C(F)(F)F)c1` [Compound 44], the “Plant response rating, Itchgrass” value in assay [7] (Rate 32 g/ha) and in assay [7] (Rate 64 g/ha) was 0 in each case. For the same compound, the “Plant response rating, Large crabgrass” value in assay [8] amounted to 0. Further, in [9] (Rate 64 g/ha), the “Plant response rating, Johnsongrass” value is reported as 0.

Consider `CCc1cnc(-n2ccc(C(F)(F)F)n2)nc1Cc1cccc(C(F)(F)F)c1` [Compound 46], for which the “Plant response rating, Itchgrass” value in [7] (Rate 32 g/ha) and in [7] (Rate 64 g/ha) was 0 in each case. Besides, the “Plant response rating, Johnsongrass” value in assay [9] (Rate 32 g/ha), in assay [9] (Rate 64 g/ha), in [9] (Rate 125 g/ha) and in assay [9] (Rate 250 g/ha) was 0 throughout. Besides, the “Plant response rating, Surinam grass” value in [10] (Rate 32 g/ha) and in assay [10] (Rate 64 g/ha) was 0 each time.

For the compound `Cc1cnc(-n2ccc(C(F)(F)F)n2)nc1Cn1ccc(C(F)(F)F)n1` [Compound 52], in assay [11], the “Plant response rating, Wild buckwheat” value was 100.

As to `Cc1cnc(-n2cnc(C(F)(F)F)n2)nc1C(=O)c1cccc(C(F)(F)F)c1` [Compound 67], the “Plant response rating, Spanishneedles” value in assay [12] (Rate 32 g/ha) and in assay [12] (Rate 64 g/ha) was 0 each time.

As to `Cc1cnc(-c2ccc(C(F)(F)F)cc2)nc1Cc1cccc(C(F)(F)F)c1` [Example 1, 5-methyl-2-[4-(trifluoromethyl)phenyl]-4-[[3-(trifluoromethyl)phenyl]methyl]pyrimidine], the “Plant response rating, I. Ryegrass” value in assay [13] (Rate 125 g/ha) and in [13] (Rate 250 g/ha) was 100 throughout. In addition, the entries for the “Plant response rating, Kochia” value in the assay with kochia (Kochia scoparia) (Rate 32 g/ha), in the assay with kochia (Kochia scoparia) (Rate 64 g/ha) and in the assay with kochia (Kochia scoparia) (Rate 125 g/ha) were 95, 100 and 100, respectively. Besides, the entries for the “Plant response rating, Russian thistle” value in assay [3] (Rate 16 g/ha), in assay [3] (Rate 62 g/ha) and in [3] (Rate 125 g/ha) were 40, 60 and 50, respectively. The “Plant response rating, Downy brome” value in [5] (Rate 250 g/ha) was 100.

With `Cc1cnc(-n2ccc(C(F)(F)F)n2)nc1Cc1cccc(C(F)(F)F)c1` [Example 2, 5-methyl-4-[[3-(trifluoromethyl)phenyl]methyl]-2-[3-(trifluoromethyl)-1H-pyrazol-1-yl]pyrimidine], in assay [14] (Rate 500 g/ha), the “Plant response rating, Itchgrass” value was 100. Moreover, the “Plant response rating, Barnyardgrass” value in assay [15] (Rate 125 g/ha) and in assay [15] (Rate 250 g/ha) was 100 in each case. The “Plant response rating, Sugarcane” value is reported as 20 in [2] (POSTEMERGENCE, Rate 32 g/ha); 20 in assay [2] (POSTEMERGENCE, Rate 64 g/ha); 20 in [2] (POSTEMERGENCE, Rate 125 g/ha); 25 in assay [2] (POSTEMERGENCE, Rate 250 g/ha); 25 in [2] (POSTEMERGENCE, Rate 500 g/ha); 0 in [2] (PREEMERGENCE, Rate 64 g/ha).

As for `Cc1cnc(-c2ccc(C(F)(F)F)cc2)nc1Cn1ccc(C(F)(F)F)n1` [compound 9], the “Plant response rating, Itchgrass” value in assay [14] (Rate 32 g/ha), in assay [14] (Rate 125 g/ha) and in assay [14] (Rate 250 g/ha) was 100 each time. Also, the “Plant response rating, Spanishneedles” value in assay [12] (Rate 32 g/ha) is given as 0. For the same compound, in assay [10] (Rate 32 g/ha), the “Plant response rating, Surinam grass” value was determined as 0.

For the origin of these results see US6525001B1, “Substituted pyrimidine and pyridine herbicides” (Mid-American Commercialization Corporation, priority 1997, dated 2003).
